Patent US8946225B2, “Derivatives of 2H pyridazin-3-ones, their preparation and their use as SCD-1 inhibitors” (Pierre Fabre Medicament, priority 2009, dated 2015)

Assays:
SCD-1 = target: T1, SCD-1 (Homo sapiens, UniProt O00767); assay: Human enzymatic activity of SCD-1 from microsomes of HepG2 cells (conversion of [14C] stearic acid to oleic acid, HPLC); assay type: biochemical; settings: microsomal fraction of HepG2 cells, 62 μM stearic acid, 20 minutes at 37° C., vs vehicle 0.1% DMSO; read-out: HSCD-1 (HEPG2) IC50
T1 construct: addition of 125 μg of microsomal fraction of HepG2 cells; host or cells: HepG2 human hepatocarcinoma cells (microsomal fraction)
T1 sequence (O00767 1-359): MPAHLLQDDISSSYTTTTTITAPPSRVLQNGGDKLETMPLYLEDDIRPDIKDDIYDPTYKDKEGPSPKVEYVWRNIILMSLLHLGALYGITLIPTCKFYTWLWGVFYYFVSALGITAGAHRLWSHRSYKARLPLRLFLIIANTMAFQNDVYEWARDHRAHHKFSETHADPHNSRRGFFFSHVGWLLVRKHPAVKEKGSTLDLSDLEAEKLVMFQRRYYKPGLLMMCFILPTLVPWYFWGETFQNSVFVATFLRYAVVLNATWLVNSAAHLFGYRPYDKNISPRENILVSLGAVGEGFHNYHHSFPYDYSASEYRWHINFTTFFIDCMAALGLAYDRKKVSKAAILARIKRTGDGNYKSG
Protocol: In vitro: Human enzymatic activity of SCD-1 from microsomes of HepG2 cells after treatment with the inhibitor compounds (% inhibition).
HepG2 cells of human hepatocarcinoma (ATCC, HB-8065) are cultured at confluence then trypsinated. The cell residue is solubilized in 10 mM Tris buffer (pH 7.4) sucrose (250 mM) DTT (1 mM) then the cells are lysed by sonication. The microsomes are obtained after centrifuging at 10,000 g for 20 minutes at 4° C. followed by centifrugation of the supernatant at 100,000 g for 60 minutes at 4° C. The residue is solubilized in 10 mM Tris buffer (pH 7.4) sucrose (250 mM) at 4° C. and the microsomal proteins are assayed and stored at −196° C. (liquid nitrogen).
The enzymatic reaction measures the conversion of stearic acid (C18:0 fatty acid) into oleic acid (C18:1 fatty acid) by SCD-1. The enzymatic reaction is initiated by the addition of 125 μg of microsomal fraction of HepG2 cells to tubes (total reaction volume of 500 μl) containing 62 μM stearic acid (45 μM stearic acid and 17 μM [^14C] stearic acid) in 100 mM phosphate buffer (pH 7.16) with 7.2 mM ATP, 0.54 mM CoA, 6 mM MgCl2, 0.8 mM NADH and the inhibitor compound or vehicle (0.1% DMSO). The tubes are incubated for 20 minutes at 37° C. then the enzymatic reaction is halted by the addition of KOH (12%) and saponification for 30 minutes at 80° C. After acidification (3N HCl), the fatty acids are extracted twice with ethyl ether, evaporated under nitrogen before being solubilized in methanol/dichloromethane (3:1). The reaction product (C18:1) is separated from the reaction substrate (C18:0) by HPLC (Perkin Elmer, C18 reverse phase column) coupled with an in-line radioactivity detector (FlowOne). Enzymatic activity is measured in picomoles of stearic acid converted to oleic acid per minute and per mg of protein. For each inhibitor compound, an IC50 value is determined, compared with the reference enzymatic activity (vehicle 0.1% DMSO). Sterculic acid is the reference inhibitor compound (Gomez F. E., Bauman D. E., Ntambi J. M., Fox B. G. Effects of sterculic acid on stearoyl-CoA desaturase in differentiating […] adipocytes. Biochem Biophys Res Commun. 300 316-326 (2003).

Row | IC50 (SCD-1) [nM] | melting point [°C] | SMILES
1 | 1000 to 3000 | 176 | Cn1ncc(OCC(=O)N2CCC(Oc3cc(C(F)(F)F)ccc3Cl)CC2)cc1=O [Example 24, 5-{2-[4-(2-Chloro-5-trifluoromethyl-phenoxy)-piperidin-1-yl]-2-oxo-ethoxy}-2-methyl-2H-pyridazin-3-one]
2 | 300 to 1000 | 124 | Cn1nccc(NC(=O)N2CCC(Oc3ccccc3Cl)CC2)c1=O [Example 64, 4-(2-chloro-phenoxy)-piperidine-1-carboxylic acid (2-methyl-3-oxo-2,3-dihydro-pyridazin-4-yl)-amide]
3 | 30 to 100 | 102 | Cn1nccc(NC(=O)N2CCC(Oc3cc(C(F)(F)F)ccc3F)CC2)c1=O [Example 54, 4-(2-fluoro-5-trifluoromethyl-phenoxy)-piperidine-1-carboxylic acid (2-methyl-3-oxo-2,3-dihydro-pyridazin-4-yl)-amide]
4 | 30 to 100 | 140 | Cn1nccc(NCC(=O)N2CCC(Oc3cc(F)ccc3C(F)(F)F)CC2)c1=O [Example 2, 4-{2-[4-(5-Fluoro-2-trifluoromethyl-phenoxy)-piperidin-1-yl]-2-oxo-ethylamino}-2-methyl-2H-pyridazin-3-one]
5 | 100 to 1000 | 138 | Cn1nccc(NC(=O)N2CCC(Oc3cc(F)ccc3F)CC2)c1=O [Example 69, 4-(2,5-difluoro-phenoxy)-piperidine-1-carboxylic acid (2-methyl-3-oxo-2,3-dihydro-pyridazin-4-yl)-amide]
6 | 100 to 1000 | 50 | Cn1nccc(NCC(=O)N2CCC(Oc3ccccc3C(F)(F)F)CC2)c1=O [Example 1, 2-Methyl-4-{2-oxo-2-[4-(2-trifluoromethyl-phenoxy)-piperidin-1-yl]-ethylamino}-2H-pyridazin-3-one]
7 | 30 | 125 | Cn1nccc(NC(=O)N2CCC(Oc3cc(Cl)ccc3Cl)CC2)c1=O [Example 62, 4-(2,5-dichloro-phenoxy)-piperidine-1-carboxylic acid (2-methyl-3-oxo-2,3-dihydro-pyridazin-4-yl)-amide]
8 | 100 to 1000 | 205 | Cn1nccc(NC(=O)C(=O)N2CCC(Oc3cc(C(F)(F)F)ccc3Cl)CC2)c1=O [Example 35, 2-[4-(2-Chloro-5-trifluoromethyl-phenoxy)-piperidin-1-yl]-N-(2-methyl-3-oxo-2,3-dihydro-pyridazin-4-yl)-2-oxo-acetamide]
9 | ~300 | 182 | Cn1nccc(NCC(=O)N2CCC(CNc3ccccc3C(F)(F)F)CC2)c1=O [Example 31, 2-Methyl-4-(2-oxo-2-{4-[(2-trifluoromethyl-phenylamino)-methyl]-piperidin-1-yl}-ethylamino)-2H-pyridazin-3-one]
10 | 100 to 300 | 152 | Cn1nccc(NCC(=O)N2CCC(Oc3ccc(Cl)cc3Cl)CC2)c1=O [Example 11, 4-{2-[4-(2,4-Dichloro-phenoxy)-piperidin-1-yl]-2-oxo-ethylamino}-2-methyl-2H-pyridazin-3-one]
11 | 30 to 100 | 162 | Cn1nccc(NCC(=O)N2CCC(Oc3cc(Cl)ccc3Cl)CC2)c1=O [Example 12, 4-{2-[4-(2,5-Dichloro-phenoxy)-piperidin-1-yl]-2-oxo-ethylamino}-2-methyl-2H-pyridazin-3-one]
12 | 10 to 100 | 158 | Cn1nccc(NCC(=O)N2CCC(Oc3cc(C(F)(F)F)ccc3Cl)CC2)c1=O [Example 4, 4-{2-[4-(2-Chloro-5-trifluoromethyl-phenoxy)-piperidin-1-yl]-2-oxo-ethylamino}-2-methyl-2H-pyridazin-3-one]
13 | 1000 | 154 | Cn1nccc(NC(=O)N2CCC(Oc3ccc(Cl)c(Cl)c3)CC2)c1=O [Example 65, 4-(3,4-dichloro-phenoxy)-piperidine-1-carboxylic acid (2-methyl-3-oxo-2,3-dihydro-pyridazin-4-yl)-amide]
14 | 100 to 1000 | 140 | Cn1nccc(NC(=O)N2CCC(Oc3ccc(Cl)cc3Cl)CC2)c1=O [Example 66, 4-(2,4-dichloro-phenoxy)-piperidine-1-carboxylic acid (2-methyl-3-oxo-2,3-dihydro-pyridazin-4-yl)-amide]
15 | 10 to 100 | 143 | Cn1nccc(NC(=O)N2CCC(Oc3cc(F)c(F)cc3Br)CC2)c1=O [Example 71, 4-(2-bromo-4,5-difluoro-phenoxy)-piperidine-1-carboxylic acid (2-methyl-3-oxo-2,3-dihydro-pyridazin-4-yl)-amide]
16 | 3000 to 10000 | 122 | Cn1nccc(NCC(=O)N2CC(Oc3ccccc3C(F)(F)F)C2)c1=O [Example 27, 2-Methyl-4-{2-oxo-2-[3-(2-trifluoromethyl-phenoxy)-azetidin-1-yl]-ethylamino}-2H-pyridazin-3-one]
17 | 3 | 160 | Cn1nccc(NCC(=O)N2CCC(Oc3cc(Br)ccc3Cl)CC2)c1=O [Example 6, 4-{2-[4-(5-Bromo-2-chloro-phenoxy)-piperidin-1-yl]-2-oxo-ethylamino}-2-methyl-2H-pyridazin-3-one]
18 | 100 to 1000 | 133 | Cc1ccc(Cl)c(OC2CCN(C(=O)Nc3ccnn(C)c3=O)CC2)c1 [Example 56, 4-(2-chloro-5-methyl-phenoxy)-piperidine-1-carboxylic acid (2-methyl-3-oxo-2,3-dihydro-pyridazin-4-yl)-amide]
19 | 10 to 100 | 145 | Cn1nccc(NC(=O)N2CCC(Oc3cc(F)ccc3C(F)(F)F)CC2)c1=O [Example 61, 4-(5-fluoro-2-trifluoromethyl-phenoxy)-piperidine-1-carboxylic acid (2-methyl-3-oxo-2,3-dihydro-pyridazin-4-yl)-amide]
20 | 30 to 100 | 159 | Cc1ccc(C(C)C)cc1OC1CCN(C(=O)CNc2ccnn(C)c2=O)CC1 [Example 16, 4-{2-[4-(5-Isopropyl-2-methyl-phenoxy)-piperidin-1-yl]-2-oxo-ethylamino}-2-methyl-2H-pyridazin-3-one]
21 | 30 to 100 | 148 | Cn1nccc(NC(=O)N2CCC(Oc3cc(C(F)(F)F)ccc3Cl)CC2)c1=O [Example 52, 4-(2-Chloro-5-trifluoromethyl-phenoxy)-piperidine-1-carboxylic acid (2-methyl-3-oxo-2,3-dihydro-pyridazin-4-yl)-amide]
22 | 10 | 158 | O=C(Nc1ccn[nH]c1=O)N1CCC(Oc2cc(C(F)(F)F)ccc2Cl)CC1 [Example 72, 4-(2-Chloro-5-trifluoromethyl-phenoxy)-piperidine-1-carboxylic acid (3-oxo-2,3-dihydro-pyridazin-4-yl)-amide]
23 | 300 | 115 | Cn1nccc(NC(=O)N2CCC(Oc3cc(F)cc(C(F)(F)F)c3)CC2)c1=O [Example 67, 4-(3-fluoro-5-trifluoromethyl-phenoxy)-piperidine-1-carboxylic acid (2-methyl-3-oxo-2,3-dihydro-pyridazin-4-yl)-amide]
